Read-outs that look alike come from different tables or passages of the source.
How the values were obtained:
[1] = test system: HeLa cells (ATCC CCL-2); assay: Cellular growth inhibition assay, HeLa cells (Example 16); type: cell-based; conditions: Homo sapiens, 72 hours, CellTiter-Glo 2.0
[2] = test system: GSPT1; assay: Payload release assay (DC50 readout), GSPT1 degradation in the presence of recombinant target protein; type: cell-based; conditions: I-series compounds (GSPT1 readout inferred)
Procedure: Exemplary compounds were tested for ability to cause degradation of CCNK or GSPT1 in the presence of recombinant target protein.
HEK293 LgBiT/GSPT1 HiBiT CRISPR Knock-in cells (Promega) were cultured in DMEM (Gibco 11995), supplemented with 10% Heat-inactivated FBS (Gibco A38400-01) and 1% Penicillin/Streptomycin (Gibco 15140-122) and 200 Vg/ml Hygromycin B (Gibco 10-687-010) at 37° C. with 5% CO2 in a humidified tissue culture incubator. HEK293 LgBiT/CCNK HiBiT cells (in-house, described above) were cultured in DMEM (Gibco 11995), supplemented with 10% Heat-inactivated FBS (Gibco A38400-01) and 1% Penicillin/Streptomycin (Gibco 15140-122) 200 Vg/ml Hygromycin B (Gibco 10-687-010), and 1 Vg/ml Puromycin Dihydrochloride (Thermo A1113803) at 37° C. with 5% CO2 in a humidified tissue culture incubator. Cells were seeded (1000 cells/well for HEK293 LgBiT/GSPT1 HiBiT cells or 3000 cells/well for HEK293 LgBiT/CCNK HiBiT cells) 384-well, tissue culture-treated white plates (Perkin Elmer 6007680) in 10 μL media lacking selection for 18-24 hours. Plates were spun at 300 g for 30 seconds and stored in the incubator overnight. After 24 hours, a 5 μL aliquot of recombinant target protein (final concentration of either 5 μM KRAS amino acids 1-169, C51S, C80L, C118S, G12C or 3 μM EGFR amino acids 696-1022 or 3 μM EGFR amino acids 696-1022, T790M, L858R) was added to wells, followed immediately by a 5 μL aliquot of 4× compound-containing medium supplemented with Endurazine Substrate (Promega N2570) was added in each well, at a final top concentration of 10 μM test compound and 0.5× Endurazine, with 4-fold dilutions, using DMSO alone as a negative control. Plates were then spun at 300×g for 3 minutes again and cultured at 37° C. with 5% CO2. After 6 hours the plate was read on Envision MultiMode Plate Reader 2105 (Perkin Elmer) to measure luminescence signal. Data was normalized to DMSO treated cell wells. A four-parameter non-linear regression curve fit was applied to dose-response data in Prism to determine the half maximal growth inhibitory concentration (GI50) of each compound.

[3] = test system: HEK293 cells (ATCC CRL-1573); assay: Cellular growth inhibition assay, HEK293 cells (Example 16); type: cell-based; conditions: Homo sapiens, 72 hours, CellTiter-Glo 2.0
[4] = molecular target: KRAS G12C (Homo sapiens, UniProt P01116, G12C); assay: KRAS G12C nucleotide exchange assay (SOS1-mediated, HTRF); type: biochemical; parameters: GST-tagged KRAS G12C (amino acids 2-169); conditions: 1 hr pre-incubation
Sequence of KRAS G12C (P01116 2-169 isoform P01116-2 G12C): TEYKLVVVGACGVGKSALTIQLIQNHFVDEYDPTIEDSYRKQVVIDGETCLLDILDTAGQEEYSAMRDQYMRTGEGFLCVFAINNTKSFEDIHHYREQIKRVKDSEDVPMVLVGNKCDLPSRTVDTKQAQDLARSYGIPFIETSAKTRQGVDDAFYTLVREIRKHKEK
Procedure: KRAS target engagement (IC50 determination) was performed using a KRAS G12C nucleotide exchange assay. Specifically, compounds were tested against KRAS G12C in 10-point concentration IC50 mode with 3-fold serial dilution at a starting concentration of 10 μM. ARS1620 was used as a control.
Briefly, GST-tagged KRAS G12C (amino acids 2-169) was mixed with anti-GST Tb antibody (1.5× solution) and 10 μL was delivered to reaction wells. Compounds were delivered using an acoustic dispenser (Echo, Labcyte) and pre-incubated with protein for 1 hr at RT. KRAS/anti-GST Tb Ab/compound mixture was incubated for 1 hour at room temperature. A 3× solution of SOS1 (amino acids 564-1049) and GTP-DY-647P1 (GTP*) was prepared in reaction buffer. A 5 μL aliquot of SOS1/GTP* solution was added to reaction wells to initiate the exchange reaction. No-SOS1 reaction or max compound concentration was used as blank. The final concentrations of KRAS G12C, SOS1, and GTP* were 30 nM, 20 nM, and 0.15 μM, respectively. SOS1 mediated exchange of GDP to GTP-DY-647P was measured using HTRF (Ex/Em=(320-75/665-7.5; 615-8.5)) using an Envision Plate Reader (Perkin Elmer). IC50 determination was performed using a Sigmoidal dose response (variable slope) equation.

[5] = 0 μM recombinant EGFR T790M L858R, read-out: DC50 at 0 μM EGFR T790M L858R
[6] = 0 μM recombinant EGFR WT, read-out: DC50 at 0 μM EGFR WT
[7] = 3 μM recombinant EGFR T790M L858R, read-out: DC50 at 3 μM EGFR T790M L858R
[8] = 3 μM recombinant EGFR WT, read-out: DC50 at 3 μM EGFR WT
[9] = 0 μM recombinant KRAS G12C, read-out: DC50 at 0 μM KRAS G12C
[10] = 5 μM recombinant KRAS G12C, read-out: DC50 at 5 μM KRAS G12C

SMILES: C=C(COc1c(Cl)cccc1NC(=O)NCc1ccc2c(c1)CN(C1CCC(=O)NC1=O)C2=O)C(=O)N[C@@H]1CN(c2nc(Nc3cn(C)nc3OC)c3ncn(C)c3n2)C[C@H]1F (stereo partly shown) [Compound I-69]
- GI50 [1]: 500 to 1500 nM
- DC50 [2, 5]: < 250 nM
- DC50 [2, 6]: < 250 nM
- DC50 [2, 7]: < 250 nM
- DC50 [2, 8]: < 250 nM
- GI50 [3]: < 500 nM

SMILES: C=C(COc1cc(-c2ccccn2)ccc1CNc1nc(N[C@H](CC)CO)nc2c1ncn2C(C)C)C(=O)N1CCN(c2nc(OC[C@@H]3CCCN3C)nc3c2CCN(c2cccc4cccc(Cl)c24)C3)C[C@@H]1CC#N [II-186]
- IC50 [4]: < 100 nM
- GI50 [1]: 1500 to 10000 nM
- GI50 [3]: 500 to 1500 nM

SMILES: C=C(COc1cc(Cl)cc(NC(=O)NCc2ccc3c(c2)CN(C2CCC(=O)NC2=O)C3=O)c1)C(=O)Nc1cc(Nc2nccc(-c3cn(C)c4ccccc34)n2)c(OC)cc1N(C)CCN(C)C (stereo not shown) [Compound I-59]
- GI50 [1]: 1500 to 10000 nM
- DC50 [2, 5]: < 250 nM
- DC50 [2, 6]: < 250 nM
- DC50 [2, 7]: < 250 nM
- DC50 [2, 8]: < 250 nM
- GI50 [3]: < 500 nM

SMILES: C=C(COc1ccccc1NC(=O)NCc1ccc2c(c1)CN(C1CCC(=O)NC1=O)C2=O)C(=O)N1CCN(c2nc(OC[C@H]3CCCN3C)nc3c2CCN(c2cccc4cccc(Cl)c24)C3)C[C@H]1CC#N (stereo partly shown) [Compound I-80]
- IC50 [4]: < 100 nM
- DC50 [2, 9]: 250 to 5000 nM
- DC50 [2, 10]: < 250 nM
- GI50 [3]: > 10000 nM

SMILES: C=C(CN(C(=O)NCc1ccc2c(c1)CN(C1CCC(=O)NC1=O)C2=O)c1ccc(C)c(Cl)c1)C(=O)Nc1cc(Nc2ncc(-c3cn(C)c4ccccc34)cn2)c(OC)cc1N(C)CCN(C)C (stereo not shown) [Compound I-42]
- GI50 [1]: 1500 to 10000 nM
- DC50 [2, 5]: 250 to 5000 nM
- DC50 [2, 6]: 5000 to 10000 nM
- DC50 [2, 7]: < 250 nM
- DC50 [2, 8]: < 250 nM
- GI50 [3]: 1500 to 10000 nM

SMILES: C=C(COc1cc(Cl)cc(NC(=O)NCc2ccc3c(c2)CN(C2CCC(=O)NC2=O)C3=O)c1)C(=O)N[C@@H]1CN(c2nc(Nc3cn(C)nc3OC)c3ncn(C)c3n2)C[C@H]1F (stereo partly shown) [Compound I-45]
- GI50 [1]: 1500 to 10000 nM
- DC50 [2, 5]: < 250 nM
- DC50 [2, 6]: < 250 nM
- DC50 [2, 7]: < 250 nM
- DC50 [2, 8]: < 250 nM
- GI50 [3]: < 500 nM

SMILES: C=C(COC(=O)n1c(CNc2nc(N3CCNCC3)nc3c(Br)cnn23)nc2cc(C)ccc21)C(=O)N1C[C@H](COc2nc(Nc3cnn(C)c3)nc3[nH]cc(Cl)c23)[C@@H](OC)C1 [Compound V-4]
- GI50 [1]: 500 to 1500 nM
- GI50 [3]: < 500 nM

SMILES: C=C(COC(=O)NCCc1ccc(Cl)cc1NC(=O)NCc1ccc2c(c1)CN(C1CCC(=O)NC1=O)C2=O)C(=O)N1CCN(c2nc(OC[C@@H]3CCCN3C)nc3c2CCN(c2cccc4cccc(Cl)c24)C3)C[C@@H]1CC#N (stereo partly shown) [Compound I-78]
- IC50 [4]: < 100 nM
- DC50 [2, 9]: > 10000 nM
- DC50 [2, 10]: > 10000 nM
- GI50 [3]: > 10000 nM

SMILES: C=C(CN(C(=O)NCc1ccc2c(c1)CN(C1CCC(=O)NC1=O)C2=O)c1ccc(C)c(Cl)c1)C(=O)N1C[C@@H](COc2nc(Nc3cnn(C)c3)nc3[nH]cc(Cl)c23)[C@H](OC)C1 (stereo partly shown) [Compound I-71]
- GI50 [1]: > 10000 nM
- DC50 [2, 5]: 250 to 5000 nM
- DC50 [2, 6]: 250 to 5000 nM
- DC50 [2, 7]: 250 to 5000 nM
- DC50 [2, 8]: 250 to 5000 nM
- GI50 [3]: 500 to 1500 nM

SMILES: C=C(COc1cc(Cl)cc(NC(=O)NCc2ccc3c(c2)CN(C2CCC(=O)NC2=O)C3=O)c1)C(=O)N1C[C@H](COc2nc(Nc3cnn(C)c3)nc3[nH]cc(Cl)c23)[C@@H](OC)C1 (stereo partly shown) [Compound I-54]
- GI50 [1]: 1500 to 10000 nM
- DC50 [2, 5]: < 250 nM
- DC50 [2, 6]: < 250 nM
- DC50 [2, 7]: < 250 nM
- DC50 [2, 8]: < 250 nM
- GI50 [3]: 500 to 1500 nM

— patent US20240408093A1, “HETEROBIFUNCTIONAL COMPOUNDS AND THEIR USE IN TREATING DISEASE” (HALDA THERAPEUTICS OPCO, INC., priority 2022, published 2024)
